Test system: panel of 484 cancer cell lines
Assay: PRISM cancer cell line profiling, 5 days
Format: cell-based
Parameters: AUC: unit not given beside the values
Description: Cancer cell line profiling was performed using the Broad’s PRISM platform. Cell treatment and data analysis were performed as described in Yu et al[42]. Raw Luminex signal was converted to AUC values for each cell line as described. The resulting AUC profile for each compound was modeled against DepMap using the limma package in R[71]. Because hotspot mutation analysis was performed against DepMap, TP53 annotations in Fig. 6c,d are directly from DepMap.

`COc1ccc(C2=N[C@@H](c3ccc(Cl)cc3)[C@@H](c3ccc(Cl)cc3)N2C(=O)N2CCNC(=O)C2)c(OC(C)C)c1` [Nutlin-3A] showed an AUC (LCLC103H_LUNG) of 1.118, an AUC (LI7_LIVER) of 1.226 and an AUC (LK2_LUNG) of 1.169. For the same compound, the AUC (LMSU_STOMACH) was 1.203, the AUC (LN18_CENTRAL_NERVOUS_SYSTEM) was 0.9973 and the AUC (LN229_CENTRAL_NERVOUS_SYSTEM) was 1.064. The AUC (LNCAPCLONEFGC_PROSTATE) was 0.906, the AUC (LOUNH91_LUNG) was 1.066 and the AUC (LOVO_LARGE_INTESTINE) was 1.199. For the same compound, the AUC (LOXIMVI_SKIN) was 0.8907, the AUC (LS180_LARGE_INTESTINE) was 0.8897 and the AUC (LS411N_LARGE_INTESTINE) was 1.29. It also gave an AUC (LS513_LARGE_INTESTINE) of 0.8844, an AUC (LS1034_LARGE_INTESTINE) of 1.251 and an AUC (LU99_LUNG) of 0.8923. For the same compound, the AUC (LUDLU1_LUNG) was 1.181, the AUC (LXF289_LUNG) was 1.109 and the AUC (MALME3M_SKIN) was 0.9143. It also gave an AUC (MCAS_OVARY) of 1.217, an AUC (MCF7_BREAST) of 0.9374 and an AUC (MDAMB175VII_BREAST) of 0.8089. The AUC (MDAMB231_BREAST) was 1.111, the AUC (MDAMB435S_SKIN) was 1.081 and the AUC (MDAMB436_BREAST) was 1.063. The AUC (MDAMB468_BREAST) was 1.113, the AUC (MELHO_SKIN) was 1.198 and the AUC (MELJUSO_SKIN) was 0.855. For the same compound, the AUC (MESSA_SOFT_TISSUE) was 0.8635, the AUC (MEWO_SKIN) was 1.1265 and the AUC (MFE280_ENDOMETRIUM) was 1.185. It also gave an AUC (MFE296_ENDOMETRIUM) of 1.073, an AUC (MFE319_ENDOMETRIUM) of 1.2827 and an AUC (MG63_BONE) of 1.195. It also gave an AUC (MHHES1_BONE) of 1.218, an AUC (MIAPACA2_PANCREAS) of 1.097 and an AUC (MKN1_STOMACH) of 1.379. The AUC (MKN7_STOMACH) was 1.0858, the AUC (MKN45_STOMACH) was 0.8665 and the AUC (MKN74_STOMACH) was 1.252. It also gave an AUC (MON_SOFT_TISSUE) of 0.7179, an AUC (MPP89_PLEURA) of 1.087 and an AUC (MSTO211H_PLEURA) of 0.822. It also gave an AUC (NB1_AUTONOMIC_GANGLIA) of 0.8777, an AUC (NCIH23_LUNG) of 0.9857 and an AUC (NCIH28_PLEURA) of 0.8619. The AUC (NCIH226_LUNG) was 0.8738, the AUC (NCIH292_LUNG) was 0.8581 and the AUC (NCIH322_LUNG) was 1.162. The AUC (NCIH358_LUNG) was 1.107, the AUC (NCIH446_LUNG) was 1.181 and the AUC (NCIH460_LUNG) was 0.8926. It also gave an AUC (NCIH520_LUNG) of 1.322, an AUC (NCIH522_LUNG) of 1.212 and an AUC (NCIH596_LUNG) of 1.199. It also gave an AUC (NCIH650_LUNG) of 1.249, an AUC (NCIH661_LUNG) of 1.081 and an AUC (NCIH727_LUNG) of 1.026. For the same compound, the AUC (NCIH747_LARGE_INTESTINE) was 1.189, the AUC (NCIH838_LUNG) was 0.9622 and the AUC (NCIH841_LUNG) was 1.117. For the same compound, the AUC (NCIH1048_LUNG) was 1.2735, the AUC (NCIH1299_LUNG) was 1.108 and the AUC (NCIH1339_LUNG) was 1.0925. The AUC (NCIH1355_LUNG) was 1.119, the AUC (NCIH1373_LUNG) was 1.06 and the AUC (NCIH1435_LUNG) was 1.3405. It also gave an AUC (NCIH1437_LUNG) of 1.108, an AUC (NCIH1563_LUNG) of 0.9521 and an AUC (NCIH1568_LUNG) of 1.038. The AUC (NCIH1573_LUNG) was 1.073, the AUC (NCIH1581_LUNG) was 1.043 and the AUC (NCIH1623_LUNG) was 1.145. For the same compound, the AUC (NCIH1648_LUNG) was 1.123, the AUC (NCIH1650_LUNG) was 0.973 and the AUC (NCIH1651_LUNG) was 1.183. The AUC (NCIH1693_LUNG) was 1.133, the AUC (NCIH1703_LUNG) was 1.137 and the AUC (NCIH1792_LUNG) was 1.259. It also gave an AUC (NCIH1793_LUNG) of 1.1676, an AUC (NCIH1838_LUNG) of 1.199 and an AUC (NCIH1915_LUNG) of 1.099. For the same compound, the AUC (NCIH1944_LUNG) was 0.8303, the AUC (NCIH1975_LUNG) was 1.115 and the AUC (NCIH2009_LUNG) was 0.9703. It also gave an AUC (NCIH2023_LUNG) of 1.159, an AUC (NCIH2030_LUNG) of 1.1142 and an AUC (NCIH2052_PLEURA) of 0.8463. The AUC (NCIH2077_LUNG) was 0.9696, the AUC (NCIH2087_LUNG) was 1.211 and the AUC (NCIH2110_LUNG) was 1.143. The AUC (NCIH2122_LUNG) was 0.8016 and the AUC (NCIH2126_LUNG) was 1.1108.
